# In PMC7402526, “An in vitro quantitative systems pharmacology approach for deconvolving mechanisms of drug-induced, multilineage cytopenias” (PLoS Computational Biology, 2020):
# Legend:
# [1] = system: neutrophils (neutrophil-lin); test: MLTA, Neut: concentration-response and QSP model fit; assay type: cell-based, human; conditions: Homo sapiens, Neutrophil, 144 h
# Method: (§1) A custom optimized cytokine cocktail was developed using commercially available cytokines (Peprotech, New Jersey) to facilitate simultaneous multi-lineage differentiation and self-renewal of freeze-thawed primary human bone marrow-derived CD34+ cells in SFEM II media (cells and media from StemCell Technologies, Vancouver). Cultures were carried out in ultra-low attachment 96-well plates (Corning, New York) with test article added on day 0 and cultured at 37°C, 85% relative humidity, and 5% CO2 for six days before interrogating drug impact via 17-parameter flow cytometry.
# (§2) The flow cytometry panel used to define hematopoietic subsets was composed of CD34-PECy7, CD90-PECY5, CD38-AF488, CD371-PE, CD45Ra-BV421, CD14-BV605, CD42b-AF647, CD10-PEDazzle594, CD235a-PerCPCy5.5 (BioLegend, California), CD15-BUV395, CD41a-APCH7, CD71-BV786 (BD Biosciences, California), and DAPI for dead cell exclusion (ThermoFisher, California). In short, Day 6 cells were harvested, FcR-blocked (FcR binding inhibitor, ThermoFisher), surface-stained, then analyzed in a buffer containing TruCount Control Beads using a BD LSR Fortessa SORP fitted with a high-throughput sampler (BD Biosciences, California). Data was analyzed in Diva 6.0.2 and exported to CSV where after all cell data was transformed to cell per mL then normalized on a per-donor basis to untreated control wells to determine drug impact.
# (§3) Donor material was collected and cultured as described above. The number of replicate donor samples per drug ranged from 2–7 and varied per drug (S1 Table). Drug treatment was added at time 0 and cells were maintained in culture for 6 days. Concentrations tested for each drug compound are contained in S1 Table. Concentrations were selected to span a range that is clinically useful. Following treatment, cell populations were measured using flow cytometry. We extracted cell counts from flow cytometry data, normalized to bead counts, and corrected for well volume.
# (§4) Each well was normalized to the average of six vehicle control wells. For drugs that were tested across multiple runs of the assay, vehicle-normalized donor data were pooled, and we used the average of these pooled data for further modeling. Normalized data used as model inputs are included in S1 Table.
# (§5) We implemented drug effects using an Emax model for the drug’s effect on each cell type. The 13 maximum effect parameters (EmaxT,C) are unitless and can vary between 0 and 2 and where a subscript, C, represents one of the previously described 13 cell types. We adapted a traditional Emax model using the equations below. We interpreted EmaxT values less than or equal to one as anti-proliferative, and EmaxT values greater than one as indicating a cell-killing mechanism in addition to anti-proliferation. The relationships for these effects are included in the model using the following equations. Eq 2 describes the drug anti-proliferative effect in the net proliferation rate for a given cell type. Eq 3 describes the cell-killing EmaxCK effect.
# (§6) Towards the estimation of mechanistic parameters, we considered different formulations: (a) weighting the objective value to prioritize fitting dead cells and (b) using regularization methodology to encourage a parsimonious solution. We assessed the contributions of these formulations using mean-squared error and goodness of fit plots for drugs with known mechanisms. […] Further, we used L1 regularization to penalize parameters […] to help identify a parsimonious set of parameters to explain drug effects.
# [2] = system: granulocyte progenitor (Gran-lin prog); test: MLTA, GranP: concentration-response and QSP model fit; assay type: cell-based, human; conditions: Homo sapiens, 144 h
# Method: as §1, §2, §3, §4, §5, §6
# [3] = system: granulocyte-macrophage progenitor (GMPs); test: MLTA, GMPs: concentration-response and QSP model fit; assay type: cell-based, human; conditions: Homo sapiens, 144 h
# Method: as §1, §2, §3, §4, §5, §6
# [4] = system: lymphocyte progenitors (LymP); test: MLTA, LymP: concentration-response and QSP model fit; assay type: cell-based, human; conditions: Homo sapiens, Lymphocyte, 144 h
# Method: as §1, §2, §3, §4, §5, §6
# granulocytes (Gran-lin) = test: MLTA, Gran: concentration-response and QSP model fit; assay type: cell-based, human; conditions: Homo sapiens, 144 h
# Method: as §1, §2, §3, §4, §5, §6
# MK cells (MK-lin) = test: MLTA, MK: concentration-response and QSP model fit; assay type: cell-based, human; conditions: Homo sapiens, 144 h
# Method: as §1, §2, §3, §4, §5, §6
# [5] = system: total viable cells (totalViableCells); test: MLTA, total live cells concentration-response; assay type: cell-based; conditions: Homo sapiens, 144 h, 6 days, normalized to vehicle control, read-out: total_live normalized cell count
# Method: as §1, §2, §3, §4
# [6] = QSP model fit of 6-day MLTA data
compound,measurement,setting,value
CCN1CCN(Cc2ccc(Nc3ncc(F)c(-c4cc(F)c5nc(C)n(C(C)C)c5c4)n3)nc2)CC1 [abemaciclib],EC50,[1]; [6],66.2 nM
same,activity at 0.0002 µM,"[1]; dose 0.2 nM, 6 days, normalized to vehicle control, read-out: Neut normalized cell count",99.5%
same,activity at 0.001 µM,"[1]; dose 1 nM, 6 days, normalized to vehicle control, read-out: Neut normalized cell count",100%
same,activity at 0.005 µM,"[1]; dose 5 nM, 6 days, normalized to vehicle control, read-out: Neut normalized cell count",86.7%
same,activity at 0.025 µM,"[1]; dose 25 nM, 6 days, normalized to vehicle control, read-out: Neut normalized cell count",30.8%
same,activity at 0.1 µM,"[1]; dose 100 nM, 6 days, normalized to vehicle control, read-out: Neut normalized cell count",4.02%
same,activity at 0.5 µM,"[1]; dose 500 nM, 6 days, normalized to vehicle control, read-out: Neut normalized cell count",0.252%
same,activity at 2.5 µM,"[1]; dose 2500 nM, 6 days, normalized to vehicle control, read-out: Neut normalized cell count",0.0296%
same,Emax,"[1]; parameter from QSP model fitting, read-out: Emax_drug_Neut",23.5%
same,activity at 0.0002 µM,"[2]; dose 0.2 nM, 6 days, normalized to vehicle control, read-out: GranPs normalized cell count",95.1%
same,activity at 0.001 µM,"[2]; dose 1 nM, 6 days, normalized to vehicle control, read-out: GranPs normalized cell count",100%
same,activity at 0.005 µM,"[2]; dose 5 nM, 6 days, normalized to vehicle control, read-out: GranPs normalized cell count",86.6%
same,activity at 0.025 µM,"[2]; dose 25 nM, 6 days, normalized to vehicle control, read-out: GranPs normalized cell count",52%
same,activity at 0.1 µM,"[2]; dose 100 nM, 6 days, normalized to vehicle control, read-out: GranPs normalized cell count",24.8%
same,activity at 0.5 µM,"[2]; dose 500 nM, 6 days, normalized to vehicle control, read-out: GranPs normalized cell count",2.43%
same,activity at 2.5 µM,"[2]; dose 2500 nM, 6 days, normalized to vehicle control, read-out: GranPs normalized cell count",0.0287%
same,Emax,"[2]; parameter from QSP model fitting, read-out: Emax_drug_GranP",0.23%
same,EC50,[3]; [6],37.3 nM
same,activity at 0.0002 µM,"[3]; dose 0.2 nM, 6 days, normalized to vehicle control, read-out: GMPs normalized cell count",89.7%
same,activity at 0.001 µM,"[3]; dose 1 nM, 6 days, normalized to vehicle control, read-out: GMPs normalized cell count",108%
same,activity at 0.005 µM,"[3]; dose 5 nM, 6 days, normalized to vehicle control, read-out: GMPs normalized cell count",93.6%
same,activity at 0.025 µM,"[3]; dose 25 nM, 6 days, normalized to vehicle control, read-out: GMPs normalized cell count",50.4%
same,activity at 0.1 µM,"[3]; dose 100 nM, 6 days, normalized to vehicle control, read-out: GMPs normalized cell count",29.2%
same,activity at 0.5 µM,"[3]; dose 500 nM, 6 days, normalized to vehicle control, read-out: GMPs normalized cell count",5.84%
same,activity at 2.5 µM,"[3]; dose 2500 nM, 6 days, normalized to vehicle control, read-out: GMPs normalized cell count",0.643%
same,activity at 0.0002 µM,"[4]; dose 0.2 nM, 6 days, normalized to vehicle control, read-out: LymP normalized cell count",93.5%
same,activity at 0.001 µM,"[4]; dose 1 nM, 6 days, normalized to vehicle control, read-out: LymP normalized cell count",99.4%
same,activity at 0.005 µM,"[4]; dose 5 nM, 6 days, normalized to vehicle control, read-out: LymP normalized cell count",92.9%
same,activity at 0.025 µM,"[4]; dose 25 nM, 6 days, normalized to vehicle control, read-out: LymP normalized cell count",38.9%
same,activity at 0.1 µM,"[4]; dose 100 nM, 6 days, normalized to vehicle control, read-out: LymP normalized cell count",22.1%
same,activity at 0.5 µM,"[4]; dose 500 nM, 6 days, normalized to vehicle control, read-out: LymP normalized cell count",22.3%
same,activity at 2.5 µM,"[4]; dose 2500 nM, 6 days, normalized to vehicle control, read-out: LymP normalized cell count",7.46%
same,Emax,"[4]; parameter from QSP model fitting, read-out: Emax_drug_LymP",0.16%
same,activity at 0.0002 µM,"granulocytes (Gran-lin); dose 0.2 nM, 6 days, normalized to vehicle control, read-out: Gran normalized cell count",101%
same,activity at 0.001 µM,"granulocytes (Gran-lin); dose 1 nM, 6 days, normalized to vehicle control, read-out: Gran normalized cell count",107%
same,activity at 0.005 µM,"granulocytes (Gran-lin); dose 5 nM, 6 days, normalized to vehicle control, read-out: Gran normalized cell count",91.3%
same,activity at 0.025 µM,"granulocytes (Gran-lin); dose 25 nM, 6 days, normalized to vehicle control, read-out: Gran normalized cell count",34.6%
same,activity at 0.1 µM,"granulocytes (Gran-lin); dose 100 nM, 6 days, normalized to vehicle control, read-out: Gran normalized cell count",9.12%
same,activity at 0.5 µM,"granulocytes (Gran-lin); dose 500 nM, 6 days, normalized to vehicle control, read-out: Gran normalized cell count",1.99%
same,activity at 2.5 µM,"granulocytes (Gran-lin); dose 2500 nM, 6 days, normalized to vehicle control, read-out: Gran normalized cell count",0.0882%
same,Emax,"granulocytes (Gran-lin); parameter from QSP model fitting, read-out: Emax_drug_Gran",0.16%
same,EC50,MK cells (MK-lin); [6],486 nM
same,activity at 0.0002 µM,"MK cells (MK-lin); dose 0.2 nM, 6 days, normalized to vehicle control, read-out: MK normalized cell count",108%
same,activity at 0.001 µM,"MK cells (MK-lin); dose 1 nM, 6 days, normalized to vehicle control, read-out: MK normalized cell count",99.5%
same,activity at 0.005 µM,"MK cells (MK-lin); dose 5 nM, 6 days, normalized to vehicle control, read-out: MK normalized cell count",101%
same,activity at 0.025 µM,"MK cells (MK-lin); dose 25 nM, 6 days, normalized to vehicle control, read-out: MK normalized cell count",84.2%
same,activity at 0.1 µM,"MK cells (MK-lin); dose 100 nM, 6 days, normalized to vehicle control, read-out: MK normalized cell count",44.1%
same,activity at 0.5 µM,"MK cells (MK-lin); dose 500 nM, 6 days, normalized to vehicle control, read-out: MK normalized cell count",8.35%
same,activity at 2.5 µM,"MK cells (MK-lin); dose 2500 nM, 6 days, normalized to vehicle control, read-out: MK normalized cell count",0.557%
same,Emax,"MK cells (MK-lin); parameter from QSP model fitting, read-out: Emax_drug_MK",6.8%
same,viability at 0.0002 µM,[5]; dose 0.2 nM,99.1%
same,viability at 0.001 µM,[5]; dose 1 nM,108%
same,viability at 0.005 µM,[5]; dose 5 nM,96%
same,viability at 0.025 µM,[5]; dose 25 nM,47.7%
same,viability at 0.1 µM,[5]; dose 100 nM,17.4%
same,viability at 0.5 µM,[5]; dose 500 nM,3.05%
same,viability at 2.5 µM,[5]; dose 2500 nM,0.301%
